For one compound, IC50 results are on record in publication PMC7690782, “Liver-Targeting Class I Selective Histone Deacetylase Inhibitors Potently Suppress Hepatocellular Tumor Growth as Standalone Agents” (Cancers, 2020).

Common to all, as to experiment: Fluor de Lys fluorescence deacetylase inhibition assay
Common to all, as to format: biochemical
What all share (settings): read-out: 1 (IC50)

The target in one assay is T1, HDAC1 (Homo sapiens, UniProt Q13547).
T1 construct: enzyme of BPS Bioscience contract assay
T1 sequence (Q13547 whole entry): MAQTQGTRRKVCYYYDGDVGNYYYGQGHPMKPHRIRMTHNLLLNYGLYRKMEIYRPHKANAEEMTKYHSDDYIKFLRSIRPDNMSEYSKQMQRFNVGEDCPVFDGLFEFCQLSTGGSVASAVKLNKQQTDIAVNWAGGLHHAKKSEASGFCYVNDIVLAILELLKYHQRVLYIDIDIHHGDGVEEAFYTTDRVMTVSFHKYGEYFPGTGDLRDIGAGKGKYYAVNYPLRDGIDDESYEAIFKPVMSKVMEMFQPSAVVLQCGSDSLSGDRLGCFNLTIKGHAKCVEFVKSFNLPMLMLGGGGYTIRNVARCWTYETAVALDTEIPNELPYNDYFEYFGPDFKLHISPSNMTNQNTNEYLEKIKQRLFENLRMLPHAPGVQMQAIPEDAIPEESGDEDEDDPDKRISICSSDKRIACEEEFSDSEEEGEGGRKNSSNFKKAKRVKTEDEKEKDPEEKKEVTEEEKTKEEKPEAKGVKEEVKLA
From the text:
Fluor de Lys fluorescence deacetylase inhibition assay on HDAC1

In a further assay the target is T2, HDAC10 (Homo sapiens, UniProt Q969S8).
T2 construct: enzyme of BPS Bioscience contract assay
T2 sequence (Q969S8 1-669): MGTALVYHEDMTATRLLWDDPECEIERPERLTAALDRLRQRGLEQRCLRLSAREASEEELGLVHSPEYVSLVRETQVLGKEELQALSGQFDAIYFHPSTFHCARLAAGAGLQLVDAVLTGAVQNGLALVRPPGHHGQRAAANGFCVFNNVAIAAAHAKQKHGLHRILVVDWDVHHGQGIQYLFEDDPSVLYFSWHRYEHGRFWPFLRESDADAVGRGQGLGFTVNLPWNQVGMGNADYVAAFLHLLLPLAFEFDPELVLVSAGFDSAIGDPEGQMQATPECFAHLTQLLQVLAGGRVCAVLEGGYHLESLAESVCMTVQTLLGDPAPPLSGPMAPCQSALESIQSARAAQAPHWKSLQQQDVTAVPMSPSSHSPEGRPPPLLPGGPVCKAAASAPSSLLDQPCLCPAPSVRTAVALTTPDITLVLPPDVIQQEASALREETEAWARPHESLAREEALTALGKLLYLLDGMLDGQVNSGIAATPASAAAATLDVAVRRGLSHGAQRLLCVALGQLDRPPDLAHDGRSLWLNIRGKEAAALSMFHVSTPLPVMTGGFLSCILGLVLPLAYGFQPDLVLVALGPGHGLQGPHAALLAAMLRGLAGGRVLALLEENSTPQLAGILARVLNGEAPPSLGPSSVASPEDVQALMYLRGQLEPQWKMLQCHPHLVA
An excerpt: Fluor de Lys fluorescence deacetylase inhibition assay on HDAC10

The target of a further assay is T3, HDAC4 (Homo sapiens, UniProt P56524).
T3 construct: enzyme of BPS Bioscience contract assay
T3 sequence (P56524 627-1084 limits assumed): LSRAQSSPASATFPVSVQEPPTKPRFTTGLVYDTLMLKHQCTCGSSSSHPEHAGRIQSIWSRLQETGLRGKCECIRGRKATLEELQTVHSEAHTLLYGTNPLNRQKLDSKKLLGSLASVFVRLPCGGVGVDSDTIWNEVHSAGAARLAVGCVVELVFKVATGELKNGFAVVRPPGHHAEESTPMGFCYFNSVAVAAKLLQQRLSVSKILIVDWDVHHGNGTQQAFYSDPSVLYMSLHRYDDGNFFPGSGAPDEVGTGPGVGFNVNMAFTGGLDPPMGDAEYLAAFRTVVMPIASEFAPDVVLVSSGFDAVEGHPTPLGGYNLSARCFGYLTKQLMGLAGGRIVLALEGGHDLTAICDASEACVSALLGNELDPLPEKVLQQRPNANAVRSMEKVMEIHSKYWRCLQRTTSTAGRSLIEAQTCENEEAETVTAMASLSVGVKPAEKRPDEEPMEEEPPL
From the text:
Fluor de Lys fluorescence deacetylase inhibition assay on HDAC4

The target in a further assay is T4, HDAC11 (Homo sapiens, UniProt Q96DB2).
T4 construct: enzyme of BPS Bioscience contract assay
T4 sequence (Q96DB2 1-347): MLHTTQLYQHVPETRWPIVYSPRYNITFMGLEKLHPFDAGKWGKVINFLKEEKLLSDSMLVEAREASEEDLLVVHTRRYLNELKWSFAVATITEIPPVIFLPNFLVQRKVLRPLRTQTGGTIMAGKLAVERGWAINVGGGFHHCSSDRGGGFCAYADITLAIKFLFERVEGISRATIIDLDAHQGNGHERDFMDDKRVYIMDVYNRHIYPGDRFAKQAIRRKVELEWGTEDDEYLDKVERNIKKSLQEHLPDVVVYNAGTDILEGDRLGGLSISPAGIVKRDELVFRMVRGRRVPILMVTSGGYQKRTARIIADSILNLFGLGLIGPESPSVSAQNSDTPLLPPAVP
An excerpt:
Fluor de Lys fluorescence deacetylase inhibition assay on HDAC11

The target of a further assay is T5, HDAC2 (Homo sapiens, UniProt Q92769).
T5 construct: enzyme of BPS Bioscience contract assay
T5 sequence (Q92769 whole entry): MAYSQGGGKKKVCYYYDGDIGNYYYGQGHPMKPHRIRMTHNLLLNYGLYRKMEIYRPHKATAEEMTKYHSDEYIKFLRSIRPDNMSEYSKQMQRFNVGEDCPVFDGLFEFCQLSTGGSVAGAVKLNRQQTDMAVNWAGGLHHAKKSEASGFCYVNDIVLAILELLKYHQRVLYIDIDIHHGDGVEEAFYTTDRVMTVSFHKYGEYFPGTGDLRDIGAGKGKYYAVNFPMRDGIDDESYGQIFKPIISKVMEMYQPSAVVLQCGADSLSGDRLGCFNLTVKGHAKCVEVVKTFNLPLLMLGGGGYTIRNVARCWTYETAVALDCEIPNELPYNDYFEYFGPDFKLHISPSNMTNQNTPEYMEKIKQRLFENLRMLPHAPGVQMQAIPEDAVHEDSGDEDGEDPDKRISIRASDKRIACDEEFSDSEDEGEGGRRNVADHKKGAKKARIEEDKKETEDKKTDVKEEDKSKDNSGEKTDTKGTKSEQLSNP
From the text:
Fluor de Lys fluorescence deacetylase inhibition assay on HDAC2

The next assay has as its target T6, HDAC9 (Homo sapiens, UniProt Q9UKV0).
T6 construct: enzyme of BPS Bioscience contract assay
An excerpt:
Fluor de Lys fluorescence deacetylase inhibition assay on HDAC9

A further assay has as its target T7, HDAC8 (Homo sapiens, UniProt Q9BY41).
T7 construct: enzyme of BPS Bioscience contract assay
T7 sequence (Q9BY41 1-377): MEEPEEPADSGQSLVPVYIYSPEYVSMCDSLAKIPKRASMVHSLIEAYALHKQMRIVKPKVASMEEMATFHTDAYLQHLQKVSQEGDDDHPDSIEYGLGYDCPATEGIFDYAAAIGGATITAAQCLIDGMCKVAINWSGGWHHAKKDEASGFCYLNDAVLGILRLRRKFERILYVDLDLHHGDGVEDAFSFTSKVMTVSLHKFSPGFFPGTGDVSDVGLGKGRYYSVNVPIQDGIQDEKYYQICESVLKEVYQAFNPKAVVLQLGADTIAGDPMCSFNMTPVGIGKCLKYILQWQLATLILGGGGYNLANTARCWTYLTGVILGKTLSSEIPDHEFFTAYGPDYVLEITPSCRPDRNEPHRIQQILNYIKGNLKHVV
An excerpt: Fluor de Lys fluorescence deacetylase inhibition assay on HDAC8

For the next assay, the target named is T8, HDAC6 (Homo sapiens, UniProt Q9UBN7).
T8 construct: enzyme of BPS Bioscience contract assay
T8 sequence (Q9UBN7 1-1215): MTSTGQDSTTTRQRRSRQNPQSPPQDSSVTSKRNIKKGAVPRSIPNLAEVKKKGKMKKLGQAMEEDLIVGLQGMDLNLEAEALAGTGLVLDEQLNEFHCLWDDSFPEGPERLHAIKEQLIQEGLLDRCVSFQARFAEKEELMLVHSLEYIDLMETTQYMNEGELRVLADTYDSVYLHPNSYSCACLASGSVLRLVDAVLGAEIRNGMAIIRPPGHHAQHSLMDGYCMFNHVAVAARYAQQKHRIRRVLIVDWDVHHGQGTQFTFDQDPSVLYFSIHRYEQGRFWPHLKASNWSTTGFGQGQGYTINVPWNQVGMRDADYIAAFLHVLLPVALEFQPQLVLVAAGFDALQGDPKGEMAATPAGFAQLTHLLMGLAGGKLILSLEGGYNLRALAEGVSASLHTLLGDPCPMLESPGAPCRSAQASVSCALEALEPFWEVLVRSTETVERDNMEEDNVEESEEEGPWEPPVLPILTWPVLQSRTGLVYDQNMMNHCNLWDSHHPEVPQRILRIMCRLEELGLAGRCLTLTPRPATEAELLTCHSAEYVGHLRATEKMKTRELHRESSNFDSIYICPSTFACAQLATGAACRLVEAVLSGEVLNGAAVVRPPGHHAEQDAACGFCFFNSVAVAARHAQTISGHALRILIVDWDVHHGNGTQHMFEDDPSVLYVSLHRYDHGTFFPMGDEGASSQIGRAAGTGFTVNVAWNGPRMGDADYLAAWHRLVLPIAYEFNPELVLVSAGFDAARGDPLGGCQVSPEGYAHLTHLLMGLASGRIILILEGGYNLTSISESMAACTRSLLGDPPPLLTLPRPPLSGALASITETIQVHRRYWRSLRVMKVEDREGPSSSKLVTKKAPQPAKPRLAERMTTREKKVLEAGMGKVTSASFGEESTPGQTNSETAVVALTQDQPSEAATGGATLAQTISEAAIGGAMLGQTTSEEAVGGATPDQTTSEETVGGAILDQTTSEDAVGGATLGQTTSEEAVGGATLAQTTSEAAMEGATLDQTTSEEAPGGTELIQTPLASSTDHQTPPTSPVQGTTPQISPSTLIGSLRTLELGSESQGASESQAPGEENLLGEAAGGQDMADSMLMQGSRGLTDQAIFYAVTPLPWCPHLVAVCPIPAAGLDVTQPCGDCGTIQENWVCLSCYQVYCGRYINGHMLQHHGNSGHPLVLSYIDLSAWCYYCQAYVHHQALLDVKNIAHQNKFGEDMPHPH
From the text: Fluor de Lys fluorescence deacetylase inhibition assay on HDAC6

In another assay the target is T9, HDAC5 (Homo sapiens, UniProt Q9UQL6).
T9 construct: enzyme of BPS Bioscience contract assay
T9 sequence (Q9UQL6 whole entry): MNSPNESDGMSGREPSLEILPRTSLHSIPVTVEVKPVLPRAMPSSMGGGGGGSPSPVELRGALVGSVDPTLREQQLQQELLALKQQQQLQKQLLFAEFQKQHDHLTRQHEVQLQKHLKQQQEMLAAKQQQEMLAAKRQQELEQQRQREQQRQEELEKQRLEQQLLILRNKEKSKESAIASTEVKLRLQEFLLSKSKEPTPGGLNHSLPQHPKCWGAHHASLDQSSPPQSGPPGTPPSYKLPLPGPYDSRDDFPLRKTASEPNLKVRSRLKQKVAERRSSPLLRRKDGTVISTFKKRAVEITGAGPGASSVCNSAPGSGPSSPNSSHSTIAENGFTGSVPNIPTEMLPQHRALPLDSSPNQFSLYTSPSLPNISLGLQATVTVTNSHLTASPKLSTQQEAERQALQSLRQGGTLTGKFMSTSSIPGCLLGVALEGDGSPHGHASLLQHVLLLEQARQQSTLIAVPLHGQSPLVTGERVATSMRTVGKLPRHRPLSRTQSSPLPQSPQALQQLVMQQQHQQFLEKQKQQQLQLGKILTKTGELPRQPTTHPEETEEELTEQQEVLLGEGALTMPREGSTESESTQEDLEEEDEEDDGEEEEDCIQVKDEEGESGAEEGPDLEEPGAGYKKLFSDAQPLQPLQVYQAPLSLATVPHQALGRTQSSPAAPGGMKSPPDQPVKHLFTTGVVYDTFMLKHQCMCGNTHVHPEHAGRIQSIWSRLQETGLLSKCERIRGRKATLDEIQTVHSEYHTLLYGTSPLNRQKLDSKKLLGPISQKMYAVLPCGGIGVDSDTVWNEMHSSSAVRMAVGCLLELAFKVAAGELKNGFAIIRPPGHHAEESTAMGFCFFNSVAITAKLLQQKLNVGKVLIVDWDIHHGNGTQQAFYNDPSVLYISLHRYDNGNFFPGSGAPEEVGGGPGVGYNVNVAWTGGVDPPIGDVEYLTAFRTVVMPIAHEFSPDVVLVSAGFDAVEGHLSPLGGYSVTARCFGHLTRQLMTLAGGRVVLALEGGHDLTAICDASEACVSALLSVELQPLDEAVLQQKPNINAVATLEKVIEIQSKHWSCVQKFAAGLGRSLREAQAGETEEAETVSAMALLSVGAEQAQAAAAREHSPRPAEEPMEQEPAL
From the text: Fluor de Lys fluorescence deacetylase inhibition assay on HDAC5

Another assay has as its target T10, HDAC7 (Homo sapiens, UniProt Q8WUI4).
T10 construct: enzyme of BPS Bioscience contract assay
T10 sequence (Q8WUI4 518-952 limits assumed): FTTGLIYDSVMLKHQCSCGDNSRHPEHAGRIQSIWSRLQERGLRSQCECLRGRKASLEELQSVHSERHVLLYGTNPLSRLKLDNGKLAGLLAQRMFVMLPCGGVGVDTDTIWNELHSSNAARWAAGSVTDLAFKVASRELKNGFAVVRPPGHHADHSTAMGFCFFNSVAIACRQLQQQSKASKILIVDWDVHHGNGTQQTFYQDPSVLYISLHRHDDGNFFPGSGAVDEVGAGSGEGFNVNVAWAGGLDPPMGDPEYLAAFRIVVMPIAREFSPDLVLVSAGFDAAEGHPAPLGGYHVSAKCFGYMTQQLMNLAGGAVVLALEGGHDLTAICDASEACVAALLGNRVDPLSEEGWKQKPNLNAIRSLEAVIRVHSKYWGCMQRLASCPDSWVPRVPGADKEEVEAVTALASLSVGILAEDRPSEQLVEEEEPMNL
From the text:
Fluor de Lys fluorescence deacetylase inhibition assay on HDAC7

T6 sequence (Q9UKV0 whole entry): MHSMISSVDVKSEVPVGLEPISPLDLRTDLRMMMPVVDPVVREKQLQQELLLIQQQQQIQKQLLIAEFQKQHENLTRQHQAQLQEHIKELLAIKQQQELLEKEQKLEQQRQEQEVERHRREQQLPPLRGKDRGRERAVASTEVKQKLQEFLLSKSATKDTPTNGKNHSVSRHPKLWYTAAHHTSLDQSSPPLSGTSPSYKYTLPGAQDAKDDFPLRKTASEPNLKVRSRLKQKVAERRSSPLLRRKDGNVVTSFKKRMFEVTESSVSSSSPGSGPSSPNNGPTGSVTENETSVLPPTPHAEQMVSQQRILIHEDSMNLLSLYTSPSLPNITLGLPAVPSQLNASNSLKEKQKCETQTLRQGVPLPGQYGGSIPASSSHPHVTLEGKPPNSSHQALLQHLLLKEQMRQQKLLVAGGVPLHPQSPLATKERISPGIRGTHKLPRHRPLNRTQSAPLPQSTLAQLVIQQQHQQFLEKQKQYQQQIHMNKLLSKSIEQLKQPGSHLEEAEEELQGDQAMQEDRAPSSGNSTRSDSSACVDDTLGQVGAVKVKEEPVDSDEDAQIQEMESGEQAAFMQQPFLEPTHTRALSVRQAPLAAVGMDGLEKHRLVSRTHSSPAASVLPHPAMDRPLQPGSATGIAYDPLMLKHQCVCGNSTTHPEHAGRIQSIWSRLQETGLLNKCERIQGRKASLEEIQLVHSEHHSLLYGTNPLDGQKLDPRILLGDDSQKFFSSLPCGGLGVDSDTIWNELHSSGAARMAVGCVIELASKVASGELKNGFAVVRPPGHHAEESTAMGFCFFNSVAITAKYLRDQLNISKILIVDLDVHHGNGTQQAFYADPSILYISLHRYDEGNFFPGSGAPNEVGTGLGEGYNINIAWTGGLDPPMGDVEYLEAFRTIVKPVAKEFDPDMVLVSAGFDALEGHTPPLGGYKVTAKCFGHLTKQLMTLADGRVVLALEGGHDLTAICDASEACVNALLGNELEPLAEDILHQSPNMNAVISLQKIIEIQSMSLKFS

Broadly, the IC50 is the point on the concentration scale where inhibition reaches its midpoint. As to `CC[C@H]1OC(=O)[C@H](C)[C@@H](O[C@H]2C[C@@](C)(OC)[C@@H](O)[C@H](C)O2)[C@H](C)[C@@H](O[C@@H]2O[C@H](C)C[C@H](N(C)Cc3ccc(-c4cn(CCCCCCC(=O)NO)nn4)cc3)[C@H]2O)[C@](C)(O)C[C@@H](C)CN(C)[C@H](C)[C@@H](O)[C@]1(C)O` [compound 1], the IC50 on HDAC1 came to 2.7 nM; at HDAC10 it was 4.5 nM; at HDAC4, 1900 nM; at HDAC11 it was 7360 nM; on HDAC2, 8.1 nM; at HDAC9, 6910 nM. Further, the IC50 is 839 nM on HDAC8, 1.7 nM at HDAC6, 1770 nM on HDAC5 and 2620 nM on HDAC7.
